In US7482374B2, “Pyrrolidine-2-ones as Factor Xa inhibitors” (Glaxo Group Limited, priority 2003, dated 2009):
Where a name gives a salt, the structure may show the parent alone.

Target: T1, human Factor Xa (Homo sapiens, UniProt P00742)
T1 construct: containing human Factor Xa (final conc. Of 0.0003 U·ml−1)
Assay: In vitro assay for inhibition of Factor Xa (fluorogenic assay, Rhodamine 110 bis-CBZ-glycylglycyl-L-arginine amide substrate)
Type: biochemical
Settings: Ki = IC50/1.6; 15 min preincubation, substrate 10 μM, room temperature, pH 7.4
Experimental: In Vitro Assay for Inhibition of Factor Xa
Compounds of the present invention were tested for their Factor Xa inhibitory activity as determined in vitro by their ability to inhibit human Factor Xa in a fluorogenic assay, using Rhodamine 110, bis-CBZ-glycylglycyl-L-arginine amide as the fluorogenic substrate. Compounds were diluted from a 10 mM stock solution in dimethylsulfoxide at appropriate concentrations. Assay was performed at room temperature using buffer consisting of: 50 mM Tris-HCl, 150 mM NaCl, 5 mM CaCl2, pH 7.4. containing human Factor Xa (final conc. Of 0.0003 U·ml−1). Compound and enzyme were preincubated for 15 min prior to addition of the substrate (final conc. of 10 μM). The reaction was stopped after 3 hrs with the addition of H-D-Phe-Pro-Arg-Chloromethylketone. An LJL-Analyst fluorimeter was used to monitor fluorescence with 485 nm excitation/535 nm emission. To obtain IC50 values the data were analysed using ActivityBase® and XLfit®.
Calculation of Ki Values: Ki=IC50/(1+[Substrate]/Km)
The Ki value for the above assay can be obtained by dividing the IC50 value by 1.6.

T1 sequence (P00742 235-488 limits assumed): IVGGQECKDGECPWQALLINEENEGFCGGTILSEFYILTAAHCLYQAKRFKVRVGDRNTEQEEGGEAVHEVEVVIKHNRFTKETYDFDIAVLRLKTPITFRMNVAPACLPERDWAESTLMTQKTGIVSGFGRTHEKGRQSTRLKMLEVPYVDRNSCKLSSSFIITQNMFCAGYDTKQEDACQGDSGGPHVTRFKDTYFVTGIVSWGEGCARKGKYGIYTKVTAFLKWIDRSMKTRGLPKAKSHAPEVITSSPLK
T1 sequence (P00742 41-179 partner limits assumed): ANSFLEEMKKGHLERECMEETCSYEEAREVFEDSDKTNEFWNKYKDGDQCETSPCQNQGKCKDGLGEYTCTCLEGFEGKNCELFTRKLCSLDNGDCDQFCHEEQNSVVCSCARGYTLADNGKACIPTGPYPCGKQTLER

Ki [nM] | SMILES
< 10 | C/C(=C\S(=O)(=O)NC1CCN(c2ccc(-n3ccnc3CN3CCC(F)C3)cc2F)C1=O)c1ccc(Cl)s1 (centres unmarked) [Example 5, (1E)-2-(5-Chloro-2-thienyl)-N-[1-(2-fluoro-4-{2-[(3-fluoro-1-pyrrolidinyl)methyl]-1H-imidazol-1-yl}phenyl)-2-oxo-3-pyrrolidinyl]-1-propene-1-sulfonamide formate]
< 10 | COC1CN(Cc2nccn2-c2ccc(N3CCC(NS(=O)(=O)c4cc5ccc(Cl)cc5s4)C3=O)c(F)c2)C1 (centres unmarked) [Example 7, 6-Chloro-N-{1-[2-fluoro-4-(2-{[3-(methyloxy)-1-azetidinyl]methyl}-1H-imidazol-1-yl)phenyl]-2-oxo-3-pyrrolidinyl}-1-benzothiophene-2-sulfonamide formate]

Further lines, the molecule ahead of its results:

SMILES | Ki [nM]
O=C1C(NS(=O)(=O)c2cc3ccc(Cl)cc3s2)CCN1c1ccc(-n2ccnc2CN2CCC(F)C2)cc1F (centres unmarked) [Example 6, 6-Chloro-N-[1-(2-fluoro-4-{2-[(3-fluoro-1-pyrrolidinyl)methyl]-1H-imidazol-1-yl}phenyl)-2-oxo-3-pyrrolidinyl]-1-benzothiophene-2-sulfonamide formate] | < 10
C/C(=C\S(=O)(=O)NC1CCN(c2ccc(-n3ccnc3CN3CCC3)cc2F)C1=O)c1ccc(Cl)s1 (centres unmarked) [Example 1, (1E)-N-(1-{4-[2-(1-Azetidinylmethyl)-1H-imidazol-1-yl]-2-fluorophenyl}-2-oxo-3-pyrrolidinyl)-2-(5-chloro-thienyl)-1-propene-1-sulfonamide formate] | < 10
O=C1C(NS(=O)(=O)CCc2ccc(Cl)s2)CCN1c1ccc(-n2ccnc2CN2CCC2)cc1F (centres unmarked) [Example 2, N-(1-{4-[2-(1-Azetidinylmethyl)-1H-imidazol-1-yl]-2-fluorophenyl}-2-oxo-3-pyrrolidinyl)-2-(5-chloro-2-thienyl)ethanesulfonamide formate] | < 10
